Here are results for 14 compounds from patent US10669242B2 (priority 2016, dated 2020).

This test has as its target T1, recombinant glucosyltransferase domain of C. difficile Toxin B/TcdB (Clostridioides difficile, UniProt P18177).
T1 construct: 6-His (C); purchased R&D Systems 6246-GT
In words: biochemical.

T1 sequence (P18177 1-543): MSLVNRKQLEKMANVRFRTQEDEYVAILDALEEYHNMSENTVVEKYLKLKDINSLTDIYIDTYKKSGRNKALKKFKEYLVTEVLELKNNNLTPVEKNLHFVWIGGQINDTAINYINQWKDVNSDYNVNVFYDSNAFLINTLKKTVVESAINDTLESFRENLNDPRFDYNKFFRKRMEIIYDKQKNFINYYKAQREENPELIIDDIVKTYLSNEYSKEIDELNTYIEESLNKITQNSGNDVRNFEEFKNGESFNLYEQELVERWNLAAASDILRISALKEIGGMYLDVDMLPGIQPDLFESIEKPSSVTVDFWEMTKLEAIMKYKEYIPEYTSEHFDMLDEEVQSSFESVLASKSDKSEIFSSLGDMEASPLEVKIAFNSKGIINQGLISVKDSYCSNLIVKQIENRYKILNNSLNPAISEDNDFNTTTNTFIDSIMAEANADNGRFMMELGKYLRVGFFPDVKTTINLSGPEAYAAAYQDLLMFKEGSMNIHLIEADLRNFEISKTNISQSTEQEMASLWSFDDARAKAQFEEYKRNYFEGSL

Usually IC50 stands for the midpoint of a concentration-inhibition curve. For the compound `O=C(Nc1ccccn1)c1ccc(CN2C(=O)c3ccc(Cl)cc3NC(=O)[C@@H]2Cc2ccccn2)cc1` [Example 4aq, (S)-4-((8-chloro-2,5-dioxo-3-(pyridin-2-ylmethyl)-2,3-dihydro-1H-benzo[e][1,4]diazepin-4(5H)-yl)methyl)-N-(pyridin-2-yl)benzamide], the IC50 was less than 100 nM. On to `Cc1ccccc1C[C@@H]1C(=O)Nc2cc(Cl)ccc2C(=O)N1Cc1ccc(C(=O)O)cc1` [Example 3l], for which the IC50 lay in the range of 1000 to 10000 nM. `O=C(c1ccccn1)c1ccc(CN2C(=O)c3ccc(Cl)cc3NC(=O)[C@H]2Cc2ccccn2)cc1F` [Example 11f, (R)-8-chloro-4-(3-fluoro-4-picolinoylbenzyl)-3-(pyridin-2-ylmethyl)-3,4-dihydro-1H-benzo[e][1,4]diazepine-2,5-dione]: the IC50 is less than 100 nM.

For `O=C(NS(=O)(=O)c1ccc(Cl)cc1)c1ccc(CN2C(=O)c3ccc(Cl)cc3NC(=O)[C@H]2Cc2cccnc2)cc1` [Example 15c, (R)-4-((8-chloro-2,5-dioxo-3-(pyridin-3-ylmethyl)-2,3-dihydro-1H-benzo[e][1,4]diazepin-4(5H)-yl)methyl)-N-((4-chlorophenyl)sulfonyl)benzamide], the IC50 lay within 1000 to 10000 nM. With `O=C(O)c1ccc(CN2C(=O)c3ccc(Cl)cc3NC(=O)[C@H]2CCc2ccccc2)cc1` [Example 3c], the IC50 lay within 10000 to 35000 nM. Next, `Cc1cc(NC(=O)c2ccc(CN3C(=O)c4ccc(Cl)cc4NC(=O)[C@H]3Cc3cccnc3)cc2)no1` [Example 4e, (R)-4-((8-chloro-2,5-dioxo-3-(pyridin-3-ylmethyl)-2,3-dihydro-1H-benzo[e][1,4]diazepin-4(5H)-yl)methyl)-N-(5-methylisoxazol-3-yl)benzamide]: less than 100 nM; `Cc1ccc(C(=O)Nc2c(C)cc(CN3C(=O)c4ccc(Cl)cc4NC(=O)[C@H]3Cc3ccccn3)cc2C)nc1` [Example 26l]: 100 to 999 nM. As for `CC(C)[C@@H]1C(=O)Nc2cc(Cl)ccc2C(=O)N1Cc1ccc(C(=O)O)cc1` [Example 3k], the figure is 100 to 999 nM; as for `CC(=O)Nc1ccc(-c2cc(CN3C(=O)c4ccc(Cl)cc4NC(=O)[C@H]3Cc3ccccn3)ccc2C(=O)O)cc1` [Example 8n, (R)-4′-acetamido-5-((8-chloro-2,5-dioxo-3-(pyridin-2-ylmethyl)-2,3-dihydro-1H-benzo[e][1,4]diazepin-4(5H)-yl)methyl)-[1,1′-biphenyl]-2-carboxylic acid], 100 to 999 nM; as for `Cc1ccc2c(c1)NC(=O)[C@@H](Cc1ccc(Cl)c(Cl)c1)N(Cc1ccc(C(=O)Nc3ccccn3)cc1)C2=O` [Example 4ac, (R)-4-((3-(3,4-dichlorobenzyl)-8-methyl-2,5-dioxo-2,3-dihydro-1H-benzo[e][1,4]diazepin-4(5H)-yl)methyl)-N-(pyridin-2-yl)benzamide], 100 to 999 nM.

With `O=C1Nc2cc(Cl)ccc2C(=O)N(Cc2ccc3c(Nc4ccccn4)nccc3c2)[C@@H]1Cc1ccccn1` [Example 49e], the IC50 is less than 100 nM.

As for `COc1cnc(NC(=O)c2ccc(CN3C(=O)c4ccc(Cl)cc4NC(=O)[C@H]3Cc3cccnc3)cc2)nc1` [Example 5m, (R)-4-((8-chloro-2,5-dioxo-3-(pyridin-3-ylmethyl)-2,3-dihydro-1H-benzo[e][1,4]diazepin-4(5H)-yl)methyl)-N-(5-methoxypyrimidin-2-yl)benzamide], the IC50 was less than 100 nM.

Turning to `Cc1cnc(NC(=O)c2ccc(CN3C(=O)c4ccc(Cl)cc4NC(=O)[C@H]3Cc3ccccn3)cc2)cn1` [Example 5t, (R)-4-((8-chloro-2,5-dioxo-3-(pyridin-2-ylmethyl)-2,3-dihydro-1H-benzo[e][1,4]diazepin-4(5H)-yl)methyl)-N-(5-methylpyrazin-2-yl)benzamide], the IC50 is less than 100 nM.

On to `Cc1cnc(NC(=O)c2ccc(CN3C(=O)c4ccc(Cl)cc4NC(=O)[C@H]3Cc3ccccn3)s2)nc1` [Example 5s, (R)-5-((8-chloro-2,5-dioxo-3-(pyridin-2-ylmethyl)-2,3-dihydro-1H-benzo[e][1,4]diazepin-4(5H)-yl)methyl)-N-(5-methylpyrimidin-2-yl)thiophene-2-carboxamide], for which the IC50 was 100 to 999 nM.
